Data on 4 compounds can be found in paper PMC10923054, “Antiplasmodial peptaibols act through membrane directed mechanisms” (Cell Chemical Biology, 2024).

For assay [1], the system named is P. falciparum Dd2. Briefly: Phenotypic screen: asexual blood stage EC50 determination (SYBR Green I). The conditions noted are these: asynchronous culture, 1% parasitemia, 1% hematocrit, 72 h, SYBR Green I; mean ± SEM, biological triplicate. The class given is cell-based. On the procedure: Asexual blood stage parasites grown in the Chakrabarti laboratory were cultured based on a protocol by Trager and Jensen[57] with some modifications.[35] Culture was maintained at 4% hematocrit with human A+ whole blood obtained from the Florida OneBlood, in RPMI 1640 supplemented with 25 mM HEPES pH 7.4, 26 mM NaHCO3, 2% dextrose, 15 mg/L hypoxanthine, 25 mg/L gentamycin, and 0.5% Albumax II. Incubator conditions remained at 37°C and 5% CO2, 5% O2, 90% N2, or 95% air. For comparison screening using serum vs Albumax II, culture media was changed from RPMI with 0.5% Albumax II to RPMI with 10% human serum and maintained for a minimum of 2 weeks prior to assay use.
(§1) Inhibitor EC50 determination in 3D7 and Dd2 was performed as discussed in,[35] based on established protocols.[60] Assays utilized asynchronous culture at 1% parasitemia, 1% hematocrit. Culture was incubated with compound dilutions for 72 h followed by freezing at −80°C to promote lysis, then thawing and incubation for 45 min–1 h with 1× SYBR Green I in a lysis buffer (20 mM Tris-HCL, 0.08% saponin, 5 mM EDTA, and 0.8% Triton X-100). Fluorescence was read 485 nm excitation, 530 nm emission on a Synergy Neo2 multimode reader (BioTek Winsooki, VT) and EC50 curves were generated using CDD Vault (https://www.collaborativedrug.com/).

In assay [2] the test system is PbLuc (P. berghei ANKA GFP-Luc-SMcon sporozoites in HepG2-A16-CD81 cells). The class given is cell-based. The conditions noted are these: 48 h after sporozoite addition, luciferase; mean ± SEM of 3 biological replicates; read-out: PbLuc EC50 (P. berghei liver stage). On the procedure: The liver stage was performed as discussed in.[61] Liver-stage inhibitory activity was evaluated in HepG2-A16-CD81 cells and using P. berghei sporozoites (P. berghei ANKA GFP-Luc-SMcon) freshly obtained by dissecting salivary glands of infected A. stephensi mosquitoes. Cells were first seeded in 1536-well plates (Greiner Bio) containing 50 nL of test and control compounds dissolved in DMSO and incubated for 24 h. Sporozoites were then added to each well at a density of 1 × 10^3 cells per well and kept at 37°C for 48 h. Afterwards, luciferin reagent (Promega BrightGlo) was added to each well, and luciferase activity was detected using a Perkin Elmer Envision plate. As a counter screen, HepG2-A16-CD81 cells were seeded as above and exposed to drug in the absence of sporozoites. Viability was evaluated by adding Promega CellTiterGlo® followed by luminescence measurement using a Perkin Elmer Envision plate reader. IC50 values were determined using CDD vault (https://www.collaborativedrug.com/).

The subject of assay [3] is Dd2 strain parasites, digestive vacuole. The assay can be described thus: Transmission electron microscopy of treated parasites. Note: key: -: A '–' indicates a negative finding; a single '+' indicates a positive finding; a double '++' indicates a strong positive finding. It is filed as cell-based, P. falciparum. Conditions: Figure 7A summary. On the procedure:
For TEM imaging, samples were prepared as previously described.[67] […] Culture was collected by centrifugation and washed with PBS, pH 7.4. Samples were then fixed in 2% paraformaldehyde, 2.5% glutaraldehyde, in a 0.1 M sodium cacodylate buffer, pH of 7.4, (Electron Microscopy Sciences, Hatfield, PA) and incubated for 2 h at room temp with mild shaking. After fixation, samples were pelleted and stored cold but not frozen in 0.2 M sodium cacodylate buffer prior to staining and embedment in Eponate 12 resin (Ted Pella Inc.). Images were taken using a JEOL 1200 EX transmission electron microscope (JEOL USA Inc., Peabody MA) and processed in AMT Image Capture Engine V602 software (Advanced Microscopy Techniques, Woburn, MA.).

In assay [4] the test system is P. falciparum 3D7 transcripts. Briefly: Real-time quantitative PCR validation. The conditions noted are these: normalized to serine-tRNA ligase; 3 biological replicates. It is filed as cell-based. On the procedure:
For RT-qPCR validation, total RNA was extracted as previously described from vehicle and HZ NPDG-I treated samples collected for the RNASeq analysis. A total of 500 ng of RNA from each sample was reverse transcribed into cDNA using the SuperScript First-Strand Synthesis System for RT-PCR (Invitrogen, Waltham, MA) with 100 ng of random hexamers. Synthesized cDNA from each of the 3 biological replicates was tested using Select Master Mix (Life Technologies, Carlsbad, CA) with 400 nM of forward and reverse primers using a QuantStudio 7 Flex qPCR machine (Thermo Fisher, Waltham, MA). SYBR fluorescence was normalized to passive reference dye ROX. Ct values were normalized using the […] method by normalizing to housekeeping gene serine-tRNA ligase (PF3D7_0717700) and then normalizing between the treated and untreated controls. PCR parameters included 50°C for 2 min, 95°C for 10 min, followed by 40 cycles of 95°C for 15 s, 55°C for 30 seconds, and 60°C for 30 seconds. Primer pair sequences are listed in full in Table S5.

Assay [5] has as its system P. falciparum asexual blood stage parasites grown in 10% human serum. The assay can be described thus: Antiplasmodial activity with serum media. The class given is cell-based. Conditions: RPMI with 10% human serum, maintained minimum 2 weeks; mean ± SEM from 3 biological replicates. On the procedure: (§2) Asexual blood stage parasites grown in the Chakrabarti laboratory were cultured based on a protocol by Trager and Jensen[57] with some modifications.[35] […] For comparison screening using serum vs Albumax II, culture media was changed from RPMI with 0.5% Albumax II to RPMI with 10% human serum and maintained for a minimum of 2 weeks prior to assay use.
as §1

The test system of assay [6] is P. falciparum asexual blood stage parasites grown in 0.5% Albumax II. Briefly: Antiplasmodial activity with Albumax II media. It is filed as cell-based. Conditions: RPMI with 0.5% Albumax II; mean ± SEM from 3 biological replicates. On the procedure: as §2, §1
Assay [7] concerns P. falciparum Dd2. Also on record: method as in PMID: 33565879. The conditions noted are these: asynchronous culture, 1% parasitemia, 1% hematocrit, 72 h, SYBR Green I; mean ± SEM, biological triplicate; ref PMID: 33565879; cited from earlier work. The source says:
Arrow length represents correlation strength. Arrow direction indicates positive/negative correlation. Peptaibols color-coded based on type. See also Figure S1. […] Values represent mean ± SEM. Resistance index (RI) = Dd2 EC50/3D7 EC50, Selectivity index (SI) = HepG2 EC50/Dd2 EC50.

Where two headings read alike, the source gives them in different places. Square brackets hold non-standard residues; d marks the D form. Peptide text beside a SMILES is read from it. Phe(ol) = N[C@H](CO)Cc1ccccc1; Leu(ol) = CC(C)C[C@H](N)CO; dIva = CC[C@@](C)(N)C(=O)O; Aib = CC(C)(N)C(=O)O

With `CC(=O)NC(C)(C)C(=O)N1CCC[C@H]1C(=O)NC(C)(C)C(=O)N[C@@H](C)C(=O)NC(C)(C)C(=O)N[C@@H](C)C(=O)N[C@@H](CCC(N)=O)C(=O)NC(C)(C)C(=O)N[C@H](C(=O)NC(C)(C)C(=O)NCC(=O)N[C@@H](CC(C)C)C(=O)NC(C)(C)C(=O)N1CCC[C@H]1C(=O)N[C@H](C(=O)NC(C)(C)C(=O)NC(C)(C)C(=O)N[C@@H](CCC(=O)O)C(=O)N[C@@H](CCC(N)=O)C(=O)N[C@H](CO)Cc1ccccc1)C(C)C)C(C)C` [Alamethicin, reference compound] (Ac-[Aib]P[Aib]A[Aib]AQ[Aib]V[Aib]GL[Aib]PV[Aib][Aib]EQ[Phe(ol)]; N-terminus assumed), the concentration giving a half-maximal response (EC50) (as a rule, the concentration giving half of the maximal effect) in the assay with P. falciparum Dd2 [1] stood at 630 ± 50 nM.

As to `CC[C@H](C)[C@H](NC(=O)[C@H](CC(C)C)NC(=O)[C@H](CCC(N)=O)NC(=O)[C@@](C)(CC)NC(C)=O)C(=O)NC(C)(C)C(=O)N1CCC[C@H]1C(=O)N[C@](C)(CC)C(=O)N[C@@H](CC(C)C)C(=O)NC(C)(C)C(=O)N1CCC[C@H]1C(=O)N[C@H](CO)CC(C)C` [HZ NPDG-I, harzianin NPDG I] (Ac-[dIva]QLI[Aib]P[dIva]L[Aib]P[Leu(ol)]), the concentration for a half-maximal effect (EC50) in assay [2] stood at 2700 nM. Further, the “DV Abnormalities” value in assay [3] is “+”. Moreover, in assay [4], the “RT-qPCR mean fold change, F3D7_0106100” value is listed as −5.86; the “RT-qPCR mean fold change, MSTRG.194.1” value amounted to 1.52; the “RT-qPCR mean fold change, MSTRG.363.2” value was determined as 2.56; the “RT-qPCR mean fold change, PF3D7_0519200” value was −22.26. In addition, the “RT-qPCR mean fold change, PF37D_1419800” value in assay [4] is recorded as −7.27. Moreover, the EC50 in assay [5] was 260 ± 30 nM. Besides, the EC50 in assay [6] was 100 ± 10 nM. Further, the concentration for a half-maximal effect (EC50) in the assay on P. falciparum Dd2 [7] is 100 nM.

In the case of `CC[C@H](C)[C@H](NC(=O)[C@H](C)NC(=O)[C@@H]1CCCN1C(=O)C(C)(C)NC(=O)[C@H](CC(C)C)NC(=O)[C@H](CCC(N)=O)NC(=O)[C@@](C)(CC)NC(C)=O)C(=O)NC(C)(C)C(=O)N1CCC[C@H]1C(=O)N[C@](C)(CC)C(=O)N[C@@H](CC(C)C)C(=O)NC(C)(C)C(=O)N1CCC[C@H]1C(=O)N[C@H](CO)CC(C)C` [HZ NPDG-H, harzianin NPDG H] (Ac-[dIva]QL[Aib]PAI[Aib]P[dIva]L[Aib]P[Leu(ol)]), the “DV Abnormalities” value in assay [3] is “+”. The values for the concentration giving a half-maximal response (EC50) (in assay [5]; in assay [6]; in the assay on P. falciparum Dd2 [7]) were 690 ± 90 nM, 330 ± 90 nM and 330 ± 90 nM, respectively.

Take `CC[C@@](C)(NC(=O)C(C)(C)NC(=O)[C@H](CC(C)C)NC(=O)[C@@H]1CCCN1C(=O)C(C)(C)NC(=O)[C@H](CC(C)C)NC(=O)CNC(=O)C(C)(C)NC(=O)[C@@H](NC(=O)C(C)(C)NC(=O)[C@H](CCC(N)=O)NC(=O)C(C)(C)NC(=O)C(C)(C)NC(=O)[C@H](C)NC(=O)CNC(=O)C(C)(C)NC(C)=O)C(C)C)C(=O)N[C@@H](CCC(N)=O)C(=O)N[C@H](CO)CC(C)C` [TC HA-II, trichorzin HA II] (Ac-[Aib]GA[Aib][Aib]Q[Aib]V[Aib]GL[Aib]PL[Aib][dIva]Q[Leu(ol)]): in assay [3], the “DV Abnormalities” value is reported as “+”. Moreover, in assay [5], the EC50 is 2200 ± 270 nM.
